Test results published in patent US10703757B2, “Compounds and methods for CDK8 modulation and indications therefor” (Plexxikon Inc., priority 2016, dated 2020).

What was measured:
[1] = tested on: CDK8 (phosphorylation of STAT1 at serine 727 in A549 cells); assay: Cell based Phospho-STAT1 assay (IFNγ-stimulated A549 cells, AlphaLISA); conditions: Homo sapiens, A549, A549 cells, phospho-STAT1 after IFNγ stimulation
Method in brief: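 A549 cells given serial compound dilutions for 1 h at 37 °C, then stimulated with IFNγ at 10 ng/mL final for 30 min. Lysate STAT1 Ser727 phosphorylation measured by AlphaLISA; % inhibition vs stimulated/unstimulated DMSO controls, IC50 by nonlinear regression.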

[2] = tested on: CDK8 (TCF/LEF luciferase reporter in HCT116 cells); assay: Cell based TCF/LEF reporter assay (HCT116+TCF/LEF luciferase); conditions: Homo sapiens, HCT-116, 24 h
Text: Determine Inhibitor Activity Against CDK8 in Cell Based TCF/LEF Reporter Assay
The colorectal carcinoma cell line HCT116 was stably transduced with lentivirus encoding the TCF/LEF promoter upstream of a luciferase reporter gene (Qiagen) and single cell clones expressing this construct (referred to as HCT116+TCF/LEF) were isolated. HCT116 express endogenous mutant β-catenin^3, resulting in up-regulation of transcription through the TCF/LEF promoter. Expression of the TCF/LEF reporter construct in HCT116 results in constitutive expression of luciferase. Treatment of the cells with inhibitors of components of the β-catenin signaling pathway (such as CDK8) results in decreased expression of luciferase. The assay is performed as follows. The HCT116+TCF/LEF cell line is seeded in a 96 well plate in 50 μL of culture media at 1×10^4 cells/well and incubated at 37° C. overnight. Serial dilutions of compounds (in total volume of 50 μL culture media) are added to the cells and incubated at 37° C. for 24 hours. 4 wells of DMSO treated cells serve as high controls and cells treated with 10 uM of the reference compound CCT251545 (a known CDK8 inhibitor)^4 serve as low controls. The viability of the cells is assayed by the addition of […] reagent (Promega) followed by 30 minute incubation at 37° C. and quantification of the fluorescent signal (Ex400/Em505). The luciferase expression is then assayed by the addition of 25 μL ONE-Glo reagent (Promega) followed by 10 minute incubation at room temperature and quantification of the luminescence signal. The luminescence signal is normalized to the fluorescence signal to correct for any loss in cell viability over the 24 hour compound incubation period. The percentage inhibition at individual concentrations relative to high and low controls is calculated. The data are analyzed by using nonlinear regression to generate IC50 values.

SMILES | IC50 [1] [nM] | IC50 [2] [nM]
CC(C)(O)C#Cc1cccn2ncc(-c3cnn(-c4cncc(C5CC5)c4)c3)c12 [Compound P-0289, 4-(3-(1-(5-cyclopropylpyridin-3-yl)-1H-pyrazol-4-yl)pyrazolo[1,5-a]pyridin-4-yl)-2-methylbut-3-yn-2-ol] | 1000 to 10000 | 1000 to 10000
N#CC1CC=C(c2c(-c3ccc4c(cnn4CC4(C(=O)O)CC4)c3)cnc3[nH]ccc23)CC1 (centres unmarked) [Compound P-0108, 1-((5-(4-(4-cyanocyclohex-1-en-1-yl)-1H-pyrrolo[2,3-b]pyridin-5-yl)-1H-indazol-1-yl)methyl)cyclopropane-1-carboxylic acid] |  | 100 to 1000
CC(C)(O)Cn1cc(-c2ccc(-c3cnn4cccc(C#CC(C)(C)C(=O)O)c34)cc2)cn1 [Compound P-0093, 4-(3-(4-(1-(2-hydroxy-2-methylpropyl)-1H-pyrazol-4-yl)phenyl)pyrazolo[1,5-a]pyridin-4-yl)-2,2-dimethylbut-3-ynoic acid] |  | 100 to 1000
Cc1cc(-c2ccc(-c3cnc4[nH]ccc4c3N3CCC(C#N)CC3)cc2)n[nH]1 [Compound P-0175, 1-(5-(4-(5-methyl-1H-pyrazol-3-yl)phenyl)-1H-pyrrolo[2,3-b]pyridin-4-yl)piperidine-4-carbonitrile] |  | 0.1 to 100
N#CC1CCN(c2cccn3ncc(-c4ccc(S(=O)(=O)N5CCCCC5)cc4)c23)CC1 [Compound P-0256, 1-(3-(4-(piperidin-1-ylsulfonyl)phenyl)pyrazolo[1,5-a]pyridin-4-yl)piperidine-4-carbonitrile] |  | 1000 to 10000
CC(C)(C#Cc1cccn2ncc(-c3ccc(N4CCOCC4)c(F)c3)c12)C(=O)O [Compound P-0092, 4-(3-(3-fluoro-4-morpholinophenyl)pyrazolo[1,5-a]pyridin-4-yl)-2,2-dimethylbut-3-ynoic acid] |  | 100 to 1000
Cn1cc(-c2ccc(-c3cnn4cccc(-c5ccnc(C#N)c5)c34)cc2)cn1 [Compound P-0425, 4-[3-[4-(1-methylpyrazol-4-yl)phenyl]pyrazolo[1,5-a]pyridin-4-yl]pyridine-2-carbonitrile] | 1000 to 10000 | 
Cn1cc(-c2ccc(-c3cnn4cccc(-c5cnn(C(=O)OC(C)(C)C)c5)c34)cc2)cn1 [Compound P-0431, tert-butyl 4-(3-(4-(1-methyl-1H-pyrazol-4-yl)phenyl)pyrazolo[1,5-a]pyridin-4-yl)-1H-pyrazole-1-carboxylate] | 1000 to 10000 | 
COc1ncc(-c2cnn3cccc(C#CC(C)(C)O)c23)cn1 [Compound P-0288, 4-(3-(2-methoxypyrimidin-5-yl)pyrazolo[1,5-a]pyridin-4-yl)-2-methylbut-3-yn-2-ol] | 100 to 1000 | 
N#CC1CC=C(c2nccn3ncc(-c4ccc(OCC(F)(F)F)c(F)c4)c23)CC1 (centres unmarked) [Compound P-0037, 4-(3-(3-fluoro-4-(2,2,2-trifluoro-ethoxy)phenyl)pyrazolo[1,5-a]pyrazin-4-yl)cyclohex-3-ene-1-carbonitrile] |  | 100 to 1000
Cn1ncc2cc(-c3cnc4[nH]ccc4c3NCC(C)(C)C#N)ccc21 [Compound P-0336, 2,2-dimethyl-3-((5-(1-methyl-1H-indazol-5-yl)-1H-pyrrolo[2,3-b]pyridin-4-yl)amino)propanenitrile] | 100 to 1000 | 
NC(=O)C1CC=C(c2cccc3ncc(-c4ccc(OCCN5CCCCC5)cc4)n23)CC1 (centres unmarked) [Compound P-0369, 4-(3-(4-(2-(piperidin-1-yl)ethoxy)phenyl)imidazo[1,2-a]pyridin-5-yl)cyclohex-3-ene-1-carboxamide] | 1000 to 10000 | 
FC(F)n1cc(-c2ccc(-c3cnc4cccc(OC5CCNCC5)n34)cc2)cn1 [Compound P-0305, 3-(4-(1-(difluoromethyl)-1H-pyrazol-4-yl)phenyl)-5-(piperidin-4-yloxy)imidazo[1,2-a]pyridine] | 1000 to 10000 | 
Cc1noc(-c2ccc(-c3cnn4cccc(N5CCC(C#N)(c6ccccn6)CC5)c34)cc2)n1 [Compound P-0351, 1-(3-(4-(3-methyl-1,2,4-oxadiazol-5-yl)phenyl)pyrazolo[1,5-a]pyridin-4-yl)-4-(pyridin-2-yl)piperidine-4-carbonitrile] | 100 to 1000 | 
Cn1cc(-c2ccc(-c3cnc4cccc(NCc5ccccc5)n34)cc2)cn1 [Compound P-0389, N-benzyl-3-(4-(1-methyl-1H-pyrazol-4-yl)phenyl)imidazo[1,2-a]pyridin-5-amine] | 1000 to 10000 | 
O=C(O)C1CC=C(c2cccn3ncc(-c4ccc(-n5ccnn5)cc4)c23)CC1 (centres unmarked) [Compound P-0212, 4-(3-(4-(1H-1,2,3-triazol-1-yl)phenyl)pyrazolo[1,5-a]pyridin-4-yl)cyclohex-3-ene-1-carboxylic acid] |  | 100 to 1000
CC(C)(C)n1ncc2cc(-c3cnc4[nH]ccc4c3C3=CCC(C#N)CC3)ccc21 (centres unmarked) [Compound P-0344, 4-(5-(1-(tert-butyl)-1H-indazol-5-yl)-1H-pyrrolo[2,3-b]pyridin-4-yl)cyclohex-3-ene-1-carbonitrile] | 100 to 1000 | 
Cn1cc(-c2ccc(-c3cnc4cccc(N5CCOCC5)n34)cc2)cn1 [Compound P-0395, 4-(3-(4-(1-methyl-1H-pyrazol-4-yl)phenyl)imidazo[1,2-a]pyridin-5-yl)morpholine] | 1000 to 10000 | 
CC(=O)NC(C)(C)C#Cc1cccn2ncc(-c3ccc(-c4cnn(C)c4)cc3)c12 [Compound P-0307, N-(2-methyl-4-(3-(4-(1-methyl-1H-pyrazol-4-yl)phenyl)pyrazolo[1,5-a]pyridin-4-yl)but-3-yn-2-yl)acetamide] | 100 to 1000 | 
Cn1cc(-c2ccc(-c3cnc4cccc(NCC5CCOCC5)n34)cc2)cn1 [Compound P-0391, 3-(4-(1-methyl-1H-pyrazol-4-yl)phenyl)-N-((tetrahydro-2H-pyran-4-yl)methyl)imidazo[1,2-a]pyridin-5-amine] | 100 to 1000 | 

The next lines start with the values.

IC50 [1] [nM] | IC50 [2] [nM] | SMILES
0.1 to 100 | 0.1 to 100 | CC1(COc2ccc(-c3cnn4ccnc(C5=CCC(C#N)CC5)c34)cc2)COC1 (centres unmarked) [Compound P-0055, 4-(3-(4-((3-methyloxetan-3-yl)methoxy)phenyl)pyrazolo[1,5-a]pyrazin-4-yl)cyclohex-3-ene-1-carbonitrile]
0.1 to 100 | 0.1 to 100 | N#CC1CCN(c2c(-c3ccc(-c4cnn(CC5CC5)c4)cc3)cnc3[nH]ccc23)CC1 [Compound P-0177, 1-(5-(4-(1-(cyclopropylmethyl)-1H-pyrazol-4-yl)phenyl)-1H-pyrrolo[2,3-b]pyridin-4-yl)piperidine-4-carbonitrile]
100 to 1000 | 100 to 1000 | CN1CCN(C(=O)c2ccc(-c3cnc4[nH]ccc4c3C3=CCC(C#N)CC3)cc2)CC1 (centres unmarked) [Compound P-0331, 4-(5-(4-(4-methylpiperazine-1-carbonyl)phenyl)-1H-pyrrolo[2,3-b]pyridin-4-yl)cyclohex-3-ene-1-carbonitrile]
0.1 to 100 | 0.1 to 100 | CC(C)(C#Cc1cccn2ncc(-c3ccc(-c4cnn(CCC#N)c4)cc3)c12)C(N)=O [Compound P-0005, 4-(3-(4-(1-(2-cyanoethyl)-1H-pyrazol-4-yl)phenyl)pyrazolo[1,5-a]pyridin-4-yl)-2,2-dimethylbut-3-ynamide]
100 to 1000 |  | Cn1cc(Nc2ncc(-c3cnc4cccc(N5CCC6(CC5)C(=O)Nc5ccccc56)n34)cn2)cn1 [Compound P-0453, 1′-(3-(2-((1-methyl-1H-pyrazol-4-yl)amino)pyrimidin-5-yl)imidazo[1,2-a]pyridin-5-yl)spiro[indoline-3,4′-piperidin]-2-one]
100 to 1000 |  | Cn1cc(-c2ccc(-c3cnn4cccc(C5=CCSCC5)c34)cc2)cn1 [Compound P-0301, 4-(3,6-dihydro-2H-thiopyran-4-yl)-3-(4-(1-methyl-1H-pyrazol-4-yl)phenyl)pyrazolo[1,5-a]pyridine]
0.1 to 100 |  | Cn1ncc2cc(-c3cnn4cccc(N5CCC(C#N)(c6ccccn6)CC5)c34)ccc21 [Compound P-0364, 1-(3-(1-methyl-1H-indazol-5-yl)pyrazolo[1,5-a]pyridin-4-yl)-4-(pyridin-2-yl)piperidine-4-carbonitrile]
0.1 to 100 |  | CC(C)(O)C#Cc1cccn2ncc(-c3ccc(-c4cnn(C(F)F)c4)cc3)c12 [Compound P-0370, 4-(3-(4-(1-(difluoromethyl)-1H-pyrazol-4-yl)phenyl)pyrazolo[1,5-a]pyridin-4-yl)-2-methylbut-3-yn-2-ol]
0.1 to 100 |  | Cn1ncc2cc(-c3cnn4cccc(N5CCC(C#N)CC5)c34)ccc21 [Compound P-0405, 1-(3-(1-methyl-1H-indazol-5-yl)pyrazolo[1,5-a]pyridin-4-yl)piperidine-4-carbonitrile]
0.1 to 100 |  | CN1CCC(Oc2cccc3ncc(-c4ccc(-c5cnn(C)c5)cc4)n23)CC1 [Compound P-0439, 3-(4-(1-methyl-1H-pyrazol-4-yl)phenyl)-5-((1-methylpiperidin-4-yl)oxy)imidazo[1,2-a]pyridine]
